Data from ChEMBL document CHEMBL5576052, “Design, synthesis, and biological evaluation of new bis-benzylisoquinoline-based analogues as potential neuromuscular blocking agents” (Bioorg Med Chem Lett, 2024).

Tests used:
Format in all cases: functional
[1] = tested on: Oryctolagus cuniculus; assay: Neuromuscular blocking in rabbit model of propofol-induced anesthesia assessed as time duration of 25 to 90 percent recovery indices at 272.7 nmol/kg by train-of-four response method
[2] = tested on: Oryctolagus cuniculus; assay: Neuromuscular blocking in rabbit model of propofol-induced anesthesia assessed as maximal blockade at 272.7 nmol/kg by train-of-four response method relative to control
[3] = tested on: Oryctolagus cuniculus; assay: Neuromuscular blocking in rabbit model of propofol-induced anesthesia assessed as effective blocking time by measuring duration from administration to 25 percent recovery at 272.7 nmol/kg by train-of-four response method
[4] = tested on: Oryctolagus cuniculus; assay: Neuromuscular blocking in rabbit model of propofol-induced anesthesia assessed as onset time at 272.7 nmol/kg by train-of-four response method
[5] = tested on: Oryctolagus cuniculus; assay: Neuromuscular blocking in rabbit model of propofol-induced anesthesia assessed as duration of time for maximal blockade at 272.7 nmol/kg by train-of-four response method
[6] = tested on: Oryctolagus cuniculus; assay: Neuromuscular blocking in rabbit model of propofol-induced anesthesia assessed as time duration of 25 to 75 percent recovery indices at 272.7 nmol/kg by train-of-four response method
[7] = tested on: Oryctolagus cuniculus; assay: Neuromuscular blocking in rabbit model of propofol-induced anesthesia assessed as time duration of 25 to 75 percent recovery indices at 27.27 nmol/kg by train-of-four response method
[8] = tested on: Oryctolagus cuniculus; assay: Neuromuscular blocking in rabbit model of propofol-induced anesthesia assessed as onset time at 27.27 nmol/kg by train-of-four response method
[9] = tested on: Oryctolagus cuniculus; assay: Neuromuscular blocking in rabbit model of propofol-induced anesthesia assessed as maximal blockade at 27.27 nmol/kg by train-of-four response method relative to control
[10] = tested on: Oryctolagus cuniculus; assay: Neuromuscular blocking in rabbit model of propofol-induced anesthesia assessed as duration of time for maximal blockade at 27.27 nmol/kg by train-of-four response method
[11] = tested on: Oryctolagus cuniculus; assay: Neuromuscular blocking in rabbit model of propofol-induced anesthesia assessed as effective blocking time by measuring duration from administration to 25 percent recovery at 27.27 nmol/kg by train-of-four response method
[12] = tested on: Oryctolagus cuniculus; assay: Neuromuscular blocking in rabbit model of propofol-induced anesthesia assessed as time duration of 25 to 90 percent recovery indices at 27.27 nmol/kg by train-of-four response method
[13] = tested on: Oryctolagus cuniculus; assay: Neuromuscular blocking in rabbit model of propofol-induced anesthesia assessed as time duration of 25 to 90 percent recovery indices at 0.06 mg/kg of inductive dose with continuous infusion of compound measured for 0.5 hrs by train-of-four response method
[14] = tested on: Oryctolagus cuniculus; assay: Neuromuscular blocking in rabbit model of propofol-induced anesthesia assessed as time duration of 25 to 90 percent recovery indices at 0.06 mg/kg of inductive dose with continuous infusion of compound measured for 1 hr by train-of-four response method
[15] = tested on: Oryctolagus cuniculus; assay: Neuromuscular blocking in rabbit model of propofol-induced anesthesia assessed as time duration of 75 to 90 percent recovery indices at 0.06 mg/kg of inductive dose with continuous infusion of compound measured for 2 hrs by train-of-four response method
[16] = tested on: Oryctolagus cuniculus; assay: Neuromuscular blocking in rabbit model of propofol-induced anesthesia assessed as time duration of 25 to 75 percent recovery indices at 0.06 mg/kg of inductive dose with continuous infusion of compound measured for 0.5 hrs by train-of-four response method
[17] = tested on: Oryctolagus cuniculus; assay: Neuromuscular blocking in rabbit model of propofol-induced anesthesia assessed as time duration of 25 to 75 percent recovery indices at 0.06 mg/kg of inductive dose with continuous infusion of compound measured for 2 hrs by train-of-four response method
[18] = tested on: Oryctolagus cuniculus; assay: Neuromuscular blocking in rabbit model of propofol-induced anesthesia assessed as time duration of 25 to 90 percent recovery indices at 0.06 mg/kg of inductive dose with continuous infusion of compound measured for 2 hrs by train-of-four response method
[19] = tested on: Oryctolagus cuniculus; assay: Neuromuscular blocking in rabbit model of propofol-induced anesthesia assessed as time duration of 25 to 75 percent recovery indices at 0.06 mg/kg of inductive dose with continuous infusion of compound measured for 1 hr by train-of-four response method
[20] = tested on: Oryctolagus cuniculus; assay: Neuromuscular blocking in rabbit model of propofol-induced anesthesia assessed as time duration of 75 to 90 percent recovery indices at 0.06 mg/kg of inductive dose with continuous infusion of compound measured for 0.5 hrs by train-of-four response method
[21] = tested on: Oryctolagus cuniculus; assay: Neuromuscular blocking in rabbit model of propofol-induced anesthesia assessed as time duration of 75 to 90 percent recovery indices at 0.06 mg/kg of inductive dose with continuous infusion of compound measured for 1 hr by train-of-four response method
[22] = tested on: Oryctolagus cuniculus; assay: Neuromuscular blocking in rabbit model of propofol-induced anesthesia assessed as time duration of 25 to 90 percent recovery indices at 0.33 mg/kg of inductive dose with continuous infusion of compound measured for 0.5 hrs by train-of-four response method
[23] = tested on: Oryctolagus cuniculus; assay: Neuromuscular blocking in rabbit model of propofol-induced anesthesia assessed as time duration of 25 to 75 percent recovery indices at 0.33 mg/kg of inductive dose with continuous infusion of compound measured for 0.5 hrs by train-of-four response method
[24] = tested on: Oryctolagus cuniculus; assay: Neuromuscular blocking in rabbit model of propofol-induced anesthesia assessed as time duration of 75 to 90 percent recovery indices at 0.33 mg/kg of inductive dose with continuous infusion of compound measured for 0.5 hrs by train-of-four response method

| SMILES | Time [1] [min] | Emax at 0.2727 µmol/kg [2] [%] | Time [3] [min] | Time [4] [min] | Time [5] [min] | Time [6] [min] | Time [7] [min] | Time [8] [min] | Emax at 0.02727 µmol/kg [9] [%] | Time [10] [min] | Time [11] [min] | Time [12] [min] | further results |
| --- | --- | --- | --- | --- | --- | --- | --- | --- | --- | --- | --- | --- | --- |
| CC[N+]1(CCCOC(=O)CC/C=C/CCC(=O)OCCC[N+]2(CC)CCc3cc(OC)c(OC)cc3[C@H]2Cc2cc(OC)c(OC)c(OC)c2)CCc2cc(OC)c(OC)cc2[C@H]1Cc1cc(OC)c(OC)c(OC)c1.[Cl-].[Cl-] (some centres undefined) | 9.67 | 100 | 14 | 0.75 | 11.75 | 6.42 |  |  |  |  |  |  |  |
| COc1cc2c(cc1OC)[C@@H](Cc1cc(OC)c(OC)c(OC)c1)[N+](C)(CCCOC(=O)CCCC(=O)OCCC[N+]1(C)CCc3cc(OC)c(OC)cc3[C@H]1Cc1cc(OC)c(OC)c(OC)c1)CC2.[Cl-].[Cl-] (some centres undefined) | 12 | 100 | 73.08 | 0.75 | 66.5 | 7.67 | 7.75 | 2.58 | 100 | 8.08 | 11.67 | 11.77 |  |
| COc1cc2c(cc1OC)[C@@H](Cc1cc(OC)c(OC)c(OC)c1)[N+](C)(CCCOC(=O)CCCCC(=O)OCCC[N+]1(C)CCc3cc(OC)c(OC)cc3[C@H]1Cc1cc(OC)c(OC)c(OC)c1)CC2.[Cl-].[Cl-] (some centres undefined) | 8.13 | 100 | 38 | 0.63 | 35 | 6.38 | 9.67 | 2.75 | 100 | 2 | 5.17 | 11.67 |  |
| COc1cc2c(cc1OC)[C@@H](Cc1cc(OC)c(OC)c(OC)c1)[N@+](CCCOC(=O)CC/C=C/CCC(=O)OCCC[N@@+]1(CC3CCC3)CCc3cc(OC)c(OC)cc3[C@H]1Cc1cc(OC)c(OC)c(OC)c1)(CC1CCC1)CC2.[Cl-].[Cl-] | 15.17 | 100 | 15.38 | 2 | 8.5 | 8.92 |  |  |  |  |  |  |  |
| COc1cc2c(cc1OC)[C@@H](Cc1cc(OC)c(OC)c(OC)c1)[N+](CCCOC(=O)CC/C=C/CCC(=O)OCCC[N+]1(CC3CC3)CCc3cc(OC)c(OC)cc3[C@H]1Cc1cc(OC)c(OC)c(OC)c1)(CC1CC1)CC2.[Cl-].[Cl-] (some centres undefined) | 9.58 | 100 | 5.17 | 1.25 | 3.67 | 6.83 |  |  |  |  |  |  |  |
| COc1cc2c(cc1OC)[C@@H](Cc1cc(OC)c(OC)c(OC)c1)[N+](C)(CCCOC(=O)CC(C)(C)CC(=O)OCCC[N+]1(C)CCc3cc(OC)c(OC)cc3[C@H]1Cc1cc(OC)c(OC)c(OC)c1)CC2.[Cl-].[Cl-] (some centres undefined) | 12.58 | 100 | 21.58 | 1.25 | 18.75 | 9.92 |  |  |  |  |  |  |  |
| CC[N@+]1(CCCOC(=O)CC/C=C/CCC(=O)OCCC[N@@+]2(CC)CCc3cc(OC)c(OC)cc3[C@H]2Cc2cc(OC)c(OC)c(OC)c2)CCc2cc(OC)c(OC)cc2[C@H]1Cc1cc(OC)c(OC)c(OC)c1.[Cl-].[Cl-] | 15.25 | 100 | 14.67 | 1.08 | 11.58 | 10.58 |  |  |  |  |  |  |  |
| COc1cc2c(cc1OC)[C@@H](Cc1cc(OC)c(OC)c(OC)c1)[N+](C)(CCCOC(=O)Cc1ccc(CC(=O)OCCC[N+]3(C)CCc4cc(OC)c(OC)cc4[C@H]3Cc3cc(OC)c(OC)c(OC)c3)cc1)CC2.[Cl-].[Cl-] (some centres undefined) | 10.83 | 100 | 18.08 | 0.92 | 14.83 | 8 |  |  |  |  |  |  |  |
| COc1cc2c(cc1OC)[C@@H](Cc1cc(OC)c(OC)c(OC)c1)[N@+](C)(CCCOC(=O)CC/C=C/CCC(=O)OCCC[N@+]1(C)CCc3cc(OC)c(OC)cc3[C@H]1Cc1cc(OC)c(OC)c(OC)c1)CC2.[Cl-].[Cl-] | 13.92 | 100 | 19.58 | 0.67 | 14.67 | 11.25 | 9.22 | 1.88 | 100 | 4.25 | 5.58 | 15.08 | Time [13]: 10.73 min; Time [14]: 9.63 min; Time [15]: 3.17 min; Time [16]: 7.13 min; Time [17]: 4.58 min; Time [18]: 7.75 min; Time [19]: 6.96 min; Time [20]: 3.6 min; Time [21]: 2.67 min |
| C=CC[N@+]1(CCCOC(=O)CC/C=C/CCC(=O)OCCC[N@@+]2(CC=C)CCc3cc(OC)c(OC)cc3[C@H]2Cc2cc(OC)c(OC)c(OC)c2)CCc2cc(OC)c(OC)cc2[C@H]1Cc1cc(OC)c(OC)c(OC)c1.[Cl-].[Cl-] | 21.83 | 100 | 6.92 | 1.42 | 4.75 | 13.25 |  |  |  |  |  |  |  |
| COc1cc2c(cc1OC)[C@@H](Cc1cc(OC)c(OC)c(OC)c1)[N+](C)(CCC(=O)OC/C=C\COC(=O)CC[N+]1(C)CCc3cc(OC)c(OC)cc3[C@H]1Cc1cc(OC)c(OC)c(OC)c1)CC2.O=S(=O)([O-])c1ccccc1.O=S(=O)([O-])c1ccccc1 (some centres undefined) | 10.25 | 100 | 11.83 | 1.67 | 8.25 | 7.5 |  |  |  |  |  |  | Time [22]: 11.17 min; Time [23]: 8 min; Time [24]: 3.17 min |
| COc1cc2c(cc1OC)[C@@H](Cc1cc(OC)c(OC)c(OC)c1)[N@@+](C)(CCCOC(=O)CC/C=C/CCC(=O)OCCC[N@+]1(C)CCc3cc(OC)c(OC)cc3[C@H]1Cc1cc(OC)c(OC)c(OC)c1)CC2.[Cl-].[Cl-] (mixture of isomers) | 13.42 | 100 | 24.5 | 0.83 | 21.42 | 10.5 | 4.92 | 3.58 | 80 | 1.92 |  | 8.92 | Time [13]: 11.1 min; Time [14]: 12.42 min; Time [16]: 6.9 min; Time [19]: 7.08 min; Time [20]: 4.2 min; Time [21]: 5.33 min |
| COc1cc2c(cc1OC)[C@@H](Cc1cc(OC)c(OC)c(OC)c1)[N+](C)(CCCOC(=O)CC/C=C/CCC(=O)OCCC[N+]1(C)CCc3cc(OC)c(OC)cc3[C@H]1Cc1cc(OC)c(OC)c(OC)c1)CC2.[Cl-].[Cl-] (some centres undefined) [MIVACURIUM CHLORIDE] | 9.71 | 100 | 18.57 | 0.79 | 15.79 | 6.54 | 7.75 | 1.58 | 100 | 4.42 | 7.92 | 11.42 | Time [13]: 11.5 min; Time [14]: 11.79 min; Time [15]: 4.83 min; Time [16]: 8 min; Time [17]: 4.92 min; Time [18]: 9 min; Time [19]: 8.5 min; Time [20]: 3.5 min; Time [21]: 3.29 min |
